Columns and labels:
Assay in all cases: relative viability (nuclei count vs DMSO), 5 days (fraction); higher = more cells survive
COR-L23 = tested on: COR-L23
Procedure, shortened: (§1)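 Medians of duplicate plates are given as relative viability. That measure is the nuclei count in treated wells divided by the count in vehicle wells. Counts were taken on 4× images of lung cancer cell lines in 1536-well plates, 5 days after pin-tool dosing the day after seeding with one drug alone or a fixed anchor-drug dose plus five library-drug doses (not always all listed) in √10 steps.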

SK-MES-1 = tested on: SK-MES-1
Procedure, shortened: as §1

NCI-H23 = tested on: NCI-H23
Procedure, shortened: as §1

PC-14 = tested on: PC-14
Procedure, shortened: as §1

NCI-H661 = tested on: NCI-H661
Procedure, shortened: as §1

NCI-H1437 = tested on: NCI-H1437
Procedure, shortened: as §1

UMC-11 = tested on: UMC-11
Procedure, shortened: as §1

NCI-H2087 = tested on: NCI-H2087
Procedure, shortened: as §1

HCC-827 = tested on: HCC-827
Procedure, shortened: as §1

NCI-H2228 = tested on: NCI-H2228
Procedure, shortened: as §1

NCI-H2085 = tested on: NCI-H2085
Procedure, shortened: as §1

LCLC-103H = tested on: LCLC-103H
Procedure, shortened: as §1

H3255 = tested on: H3255
Procedure, shortened: as §1

NCI-H1666 = tested on: NCI-H1666
Procedure, shortened: as §1

LXF-289 = tested on: LXF-289
Procedure, shortened: as §1

HCC-366 = tested on: HCC-366
Procedure, shortened: as §1

HCC-15 = tested on: HCC-15
Procedure, shortened: as §1

NCI-H1975 = tested on: NCI-H1975
Procedure, shortened: as §1

PC-3 [JPC-3] = tested on: PC-3 [JPC-3]
Procedure, shortened: as §1

NCI-H2342 = tested on: NCI-H2342
Procedure, shortened: as §1

NCI-H2009 = tested on: NCI-H2009
Procedure, shortened: as §1

LC-2-ad = tested on: LC-2-ad
Procedure, shortened: as §1

ABC-1 = tested on: ABC-1
Procedure, shortened: as §1

Compound: Cc1csc(=NC2CCCCC2)n1/N=C/c1ccc(O)c(O)c1O [MIM1] + COc1cc2c(Oc3ccc(NC(=O)C4(C(=O)Nc5ccc(F)cc5)CC4)cc3F)ccnc2cc1OCCCN1CCOCC1 [Foretinib] (partner 0.25 µM)
- relative viability (COR-L23; first compound 0.2 µM): 0.992
- relative viability (COR-L23; first compound 0.6325 µM): 0.935
- relative viability (COR-L23; first compound 2 µM): 0.839
- relative viability (COR-L23; first compound 6.325 µM): 0.802
- relative viability (COR-L23; first compound 20 µM): 0.547
- relative viability (SK-MES-1; first compound 0.2 µM): 0.897
- relative viability (SK-MES-1; first compound 0.6325 µM): 0.891
- relative viability (SK-MES-1; first compound 2 µM): 0.861
- relative viability (SK-MES-1; first compound 6.325 µM): 0.805
- relative viability (SK-MES-1; first compound 20 µM): 0.758
- relative viability (NCI-H23; first compound 0.2 µM): 1.07
- relative viability (NCI-H23; first compound 2 µM): 0.791
- relative viability (NCI-H23; first compound 6.325 µM): 0.812
- relative viability (NCI-H23; first compound 20 µM): 0.263
- relative viability (PC-14; first compound 0.2 µM): 0.931
- relative viability (PC-14; first compound 0.6325 µM): 0.942
- relative viability (PC-14; first compound 2 µM): 0.908
- relative viability (PC-14; first compound 6.325 µM): 0.784
- relative viability (PC-14; first compound 20 µM): 0.629
- relative viability (NCI-H661; first compound 0.2 µM): 0.933
- relative viability (NCI-H661; first compound 0.6325 µM): 1
- relative viability (NCI-H661; first compound 2 µM): 0.939
- relative viability (NCI-H661; first compound 6.325 µM): 0.75
- relative viability (NCI-H661; first compound 20 µM): 0.355
- relative viability (NCI-H1437; first compound 0.2 µM): 1.24
- relative viability (NCI-H1437; first compound 0.6325 µM): 1.34
- relative viability (NCI-H1437; first compound 2 µM): 1.19
- relative viability (NCI-H1437; first compound 6.325 µM): 1.1
- relative viability (NCI-H1437; first compound 20 µM): 0.243
- relative viability (UMC-11; first compound 0.2 µM): 1.07
- relative viability (UMC-11; first compound 2 µM): 1.2
- relative viability (UMC-11; first compound 6.325 µM): 0.703
- relative viability (UMC-11; first compound 20 µM): 0.335
- relative viability (NCI-H2087; first compound 0.2 µM): 1.04
- relative viability (NCI-H2087; first compound 0.6325 µM): 1.31
- relative viability (NCI-H2087; first compound 2 µM): 1.18
- relative viability (NCI-H2087; first compound 6.325 µM): 0.813
- relative viability (NCI-H2087; first compound 20 µM): 0.847
- relative viability (HCC-827; first compound 0.2 µM): 1.04
- relative viability (HCC-827; first compound 0.6325 µM): 1
- relative viability (HCC-827; first compound 2 µM): 1.01
- relative viability (HCC-827; first compound 6.325 µM): 0.402
- relative viability (HCC-827; first compound 20 µM): 0.207
- relative viability (NCI-H2228; first compound 0.2 µM): 1.06
- relative viability (NCI-H2228; first compound 0.6325 µM): 0.951
- relative viability (NCI-H2228; first compound 2 µM): 0.853
- relative viability (NCI-H2228; first compound 6.325 µM): 0.583
- relative viability (NCI-H2228; first compound 20 µM): 0.247
- relative viability (NCI-H2085; first compound 0.2 µM): 0.895
- relative viability (NCI-H2085; first compound 0.6325 µM): 1.11
- relative viability (NCI-H2085; first compound 2 µM): 1.13
- relative viability (NCI-H2085; first compound 6.325 µM): 0.935
- relative viability (NCI-H2085; first compound 20 µM): 0.843
- relative viability (LCLC-103H; first compound 0.2 µM): 0.82
- relative viability (LCLC-103H; first compound 0.6325 µM): 0.833
- relative viability (LCLC-103H; first compound 2 µM): 0.942
- relative viability (LCLC-103H; first compound 6.325 µM): 0.545
- relative viability (LCLC-103H; first compound 20 µM): 0.364
- relative viability (H3255; first compound 0.2 µM): 0.945
- relative viability (H3255; first compound 0.6325 µM): 0.715
- relative viability (H3255; first compound 2 µM): 0.743
- relative viability (H3255; first compound 6.325 µM): 0.724
- relative viability (H3255; first compound 20 µM): 0.307
- relative viability (NCI-H1666; first compound 0.2 µM): 0.943
- relative viability (NCI-H1666; first compound 0.6325 µM): 0.962
- relative viability (NCI-H1666; first compound 2 µM): 1
- relative viability (NCI-H1666; first compound 6.325 µM): 0.724
- relative viability (NCI-H1666; first compound 20 µM): 0.597
- relative viability (LXF-289; first compound 0.2 µM): 1.02
- relative viability (LXF-289; first compound 0.6325 µM): 0.9
- relative viability (LXF-289; first compound 2 µM): 1.03
- relative viability (LXF-289; first compound 6.325 µM): 0.789
- relative viability (LXF-289; first compound 20 µM): 0.721
- relative viability (HCC-366; first compound 0.2 µM): 0.927
- relative viability (HCC-366; first compound 2 µM): 0.993
- relative viability (HCC-366; first compound 6.325 µM): 0.782
- relative viability (HCC-366; first compound 20 µM): 0.077
- relative viability (HCC-15; first compound 0.2 µM): 1.09
- relative viability (HCC-15; first compound 2 µM): 1.06
- relative viability (HCC-15; first compound 6.325 µM): 0.764
- relative viability (HCC-15; first compound 20 µM): 0.157
- relative viability (NCI-H1975; first compound 0.2 µM): 0.905
- relative viability (NCI-H1975; first compound 0.6325 µM): 0.96
- relative viability (NCI-H1975; first compound 2 µM): 0.837
- relative viability (NCI-H1975; first compound 6.325 µM): 0.493
- relative viability (NCI-H1975; first compound 20 µM): 0.316
- relative viability (PC-3 [JPC-3]; first compound 0.2 µM): 1.01
- relative viability (PC-3 [JPC-3]; first compound 0.6325 µM): 1.05
- relative viability (PC-3 [JPC-3]; first compound 2 µM): 1.01
- relative viability (PC-3 [JPC-3]; first compound 6.325 µM): 0.763
- relative viability (PC-3 [JPC-3]; first compound 20 µM): 0.531
- relative viability (NCI-H2342; first compound 0.2 µM): 1.25
- relative viability (NCI-H2342; first compound 0.6325 µM): 0.952
- relative viability (NCI-H2342; first compound 2 µM): 1.07
- relative viability (NCI-H2342; first compound 6.325 µM): 0.952
- relative viability (NCI-H2342; first compound 20 µM): 1.11
- relative viability (NCI-H2009; first compound 0.2 µM): 1.19
- relative viability (NCI-H2009; first compound 0.6325 µM): 1.25
- relative viability (NCI-H2009; first compound 2 µM): 1.27
- relative viability (NCI-H2009; first compound 6.325 µM): 1.09
- relative viability (NCI-H2009; first compound 20 µM): 0.566
- relative viability (LC-2-ad; first compound 0.2 µM): 0.896
- relative viability (LC-2-ad; first compound 0.6325 µM): 0.783
- relative viability (LC-2-ad; first compound 2 µM): 0.745
- relative viability (LC-2-ad; first compound 6.325 µM): 0.631
- relative viability (LC-2-ad; first compound 20 µM): 0.159
- relative viability (ABC-1; first compound 0.2 µM): 1.05
- relative viability (ABC-1; first compound 0.6325 µM): 1.12
- relative viability (ABC-1; first compound 2 µM): 0.981
- relative viability (ABC-1; first compound 6.325 µM): 0.324
- relative viability (ABC-1; first compound 20 µM): 0.328

Source: the supplement of paper PMC10307832
